# In US9949970B2, “Synthesis of new benzothiazole derivatives as potential anti-tubercular agents” (priority 2010, dated 2018):
# Test system: M. tuberculosis isolates and drug resistance strains
# Type: cell-based, Mycobacterium tuberculosis
row,Molecule,In vitro activity (result in words)
1,"O=C(Nc1ccc2nc(NC(=O)c3ccc(F)cc3F)sc2c1)c1ccc([N+](=O)[O-])o1 [Compound 6i, N2-{2-[(2,4-difluorobenzoyl)amino]-1,3-benzothiazol-6-yl}-5-nitrofuramide]",good in vitro activity
2,"O=C(Nc1nc2ccc(NC(=O)c3ccc([N+](=O)[O-])o3)cc2s1)c1ccc(F)cc1 [Compound 6f, N2-{2-[(4-fluorobenzoyl)amino]-1,3-benzothiazol-6-yl}-5-nitrofuramide]",good in vitro activity
3,"O=C(NNc1nc2ccc(OC(F)(F)F)cc2s1)c1ccc([N+](=O)[O-])o1 [Compound 4e, N′2-(6-trifluoromethoxy-1,3-benzothiazol-2-yl)-5-nitro-2-furanecarbohydrazide]",good in vitro activity
4,"O=C(Nc1ccc2nc(NC(=O)c3ccc([N+](=O)[O-])o3)sc2c1)c1ccc([N+](=O)[O-])o1 [Compound 8a, N2-(2-{[(5-nitro-2-furyl)carbonyl]amino}-1,3-benzothiazol-6-yl}-5-nitro-2-furamide]",good in vitro activity
5,"O=[N+]([O-])c1ccc(C=NNc2nc3ccc(OC(F)(F)F)cc3s2)s1 [Compound 3j, 5-nitro-2-thiophenecarbaldehyde 2-(6-trifluoromethoxy-1,3-benzothiazole-2-yl)hydrazone]",good in vitro activity
6,"O=C(Nc1nc2ccc(NC(=O)c3ccc([N+](=O)[O-])o3)cc2s1)c1cnccn1 [Compound 6p, N2-(6-{[(5-nitro-2-furyl)carbonyl]amino}-1,3-benzothiazol-2-yl)-2-pyrazinecarboxamide]",good in vitro activity
7,"N2-(2-{[(E)-3-(4-chlorophenyl)-2-propenoyl]amino}-1,3-benzothiazol-6-yl)-5-nitro-2-furamide [Compound 6w]",good in vitro activity
8,"O=C(Nc1nc2ccc(NC(=O)c3ccc([N+](=O)[O-])o3)cc2s1)c1ccc(Cl)cc1 [Compound 6g, N2-{2-[(4-chlorobenzoyl)amino]-1,3-benzothiazol-6-yl}-5-nitrofuramide]",good in vitro activity
